Data published in patent publication US12257282B2, “Mixtures and formulations” (CAMURUS AB, priority 2016, dated 2025).
Numbered stars: 1 amine (or outer) side, 2 acyl side, 3 side chain; on linkers, the order of the positions; unused ones are H or OH. Square brackets hold non-standard residues; d marks the D form. Side chains are listed from the residue outwards. Peptide text beside a SMILES is read from it. * marks the point of attachment. Ethylenediamine = C(CN[*:2])N[*:1]; Hyp = O=C(O)[C@@H]1C[C@@H](O)CN1; Phg = N[C@H](C(=O)O)c1ccccc1; CO = O=C([*:1])[*:2]; Bn = c1ccc(C*)cc1

How the values were obtained:
[1] = DTPA solubility in EtOH/PG as a function of ETA/DTPA molar ratio; type: physicochemical
[2] = Octreotide stability in lipid formulations (assay by gradient HPLC-UV after storage); details: for effect on octreotide stability compared to the reference formulation (FIG. 7): alkylamine used to solubilize 100 ppm EDTA, alkylamine:EDTA 4:1; for effect on octreotide stability compared to the reference formulation (FIG. 7) / effect on OCT(Cl) stability vs. the reference formulation (FIG. 6): up to two months; for effect on OCT(Cl) stability vs. the reference formulation (FIG. 6): additive mixtures in EtOH/PG filtered to remove non-dissolved particles, 5 ppm Fe3+
[3] = 2.00 wt % SOM(Cl) in SPC/GDO/EtOH/PG; 100 ppm EDTA with ETA; 40° C./75% RH and 25° C./60% RH, up to three months
[4] = placebo SPC/GDO 50/50 and 35/65 with EtOH; 100 ppm EDTA; with or without 5 ppm Fe3+; 60° C./ambient RH and 40° C./75% RH
Experimental: Oxygen concentration in the vial headspace was measured using a PC-controlled PreSens Microx TX3 micro fiber optic oxygen transmitter equipped with a needle-type optical oxygen microsensor (NTH, 140 μm flat broken tip). Measurements were performed by penetrating the oxygen microsensor through the vial rubber stopper into the vial headspace and measuring the oxygen concentration until a stable readout was obtained (about 1 min).
Some formulations also contained 5 ppm Fe^3+ to enhance the oxidative stress conditions (Table 10).

SSTR1-SSTRS = details: cited from earlier work
[5] = cited from earlier work
[6] = single subcutaneous dose, human plasma; cited from earlier work
[7] = 0.38 wt % EDTA in EtOH/PG (1/1 wt/wt)

With `O=C(O)CN(CCN(CC(=O)O)CC(=O)O)CCN(CC(=O)O)CC(=O)O` [DTPA, Diethylenetriaminepentaacetic (pentetic) acid] the “DTPA solubility in EtOH/PG without using ETA” value ([1]; 0.08 wt % DTPA) was “not soluble” and the “required minimum amount of ETA needed to solubilize DTPA” value ([1]; 0.08 wt % DTPA in EtOH/PG (50/50 w/w)) was “about 4.3 mol of ETA per 1 mol of DTPA”.
With `OCCNCCO` [DiETA, Diethanolamine] the “effect on octreotide stability compared to the reference formulation (FIG. 7)” value ([2]; 40° C./75% RH) was “enhanced the peptide stability to a similar high degree”.
For `O.O.O=C(O)CN(CCN(CC(=O)O)CC(=O)O)CC(=O)O.[Na].[Na]` [EDTA(Na), Ethylenediaminetetraacetic acid disodium dihydrate], the “effect on OCT(Cl) stability vs. the reference formulation (FIG. 6)” value ([2]; 40° C./75% RH) was “negative effect”.
With `O=C(O)CN(CCN(CC(=O)O)CC(=O)O)CC(=O)O` [EDTA, Ethylenediaminetetraacetic (edetic) acid] the “effect on SOM stability (SOM assay, FIG. 9)” value [3] was “dramatically enhanced the peptide stability”, the “effect on consumption of headspace oxygen (lipid oxidation, FIG. 15-18)” value [4] was “drastically reduce consumption of oxygen” and the “effect on octreotide stability vs. reference formulation (FIG. 2)” value ([2]; 2.27 wt % OCT(Cl) in SPC/GDO/EtOH/PG, 0-750 ppm EDTA with ETA, 40° C./75% RH, 0, 1, 2 months, air headspace) was “dramatically enhanced the peptide stability”. The “EDTA concentration interval of maximum stabilization effect” value ([2]; 2.27 wt % OCT(Cl) in SPC/GDO/EtOH/PG, 40° C./75% RH) was 50-250 ppm, the “effect on octreotide stability (octreotide assay, FIG. 1)” value ([2]; 2.34 wt % OCT(Cl) in SPC/GDO/EtOH/PG, 100 ppm EDTA with 100 ppm ETA vs none, […], up to three months, air headspace) was “dramatically enhanced the peptide stability” and the “effect on long-term octreotide stability (FIG. 3)” value ([2]; 100 ppm EDTA with ETA, pre-filled glass syringes, 25° C./60% RH, up to twelve months) was “significantly enhanced the long-term peptide stability”. The “effect on OCT(Cl) stability vs. the reference formulation (FIG. 6)” value ([2]; 40° C./75% RH) was “negative effect”.
With `NCCO` [ETA, Ethanolamine] the “effect on octreotide stability compared to the reference formulation (FIG. 7)” value ([2]; 40° C./75% RH) was “enhanced the peptide stability to a similar high degree”.
For `C[C@@H](O)[C@@H]1NC(=O)[C@H](CCCCN)NC(=O)[C@@H](Cc2c[nH]c3ccccc23)NC(=O)[C@H](Cc2ccccc2)NC(=O)[C@@H](NC(=O)[C@H](N)Cc2ccccc2)CSSC[C@@H](C(=O)N[C@H](CO)[C@@H](C)O)NC1=O` [Octreotide, D-Phe-Cys-Phe-D-Trp-Lys-Thr-Cys-Thr-ol (2-7 disulphide bridge)], the “selectivity for SSTR2 and SSTRS” value (SSTR1-SSTRS) is listed as “high selectivity” and the terminal half-life ([5]; in vivo) is listed as “around 1.7 hours”.
In the case of `NCCCC[C@@H]1NC(=O)[C@@H](Cc2c[nH]c3ccccc23)NC(=O)[C@H](c2ccccc2)NC(=O)[C@@H]2C[C@@H](OC(=O)NCCN)CN2C(=O)[C@H](Cc2ccccc2)NC(=O)[C@H](Cc2ccc(OCc3ccccc3)cc2)NC1=O` [pasireotide] (cyclo([Hyp]([CO-Ethylenediamine])[Phg][dW]KY(Bn)F)), the “initial half-life following the peak” value [6] is listed as 2 to 3 h.
With `NC(CO)CO` [serinol] the “required minimum amount of alkylamine needed to solubilize EDTA” value [7] was “about 4 mol per 1 mol of EDTA”.
In the case of “Ala-Gly-Cys-Lys-Asn-Phe-Phe-Trp-Lys-Thr-Phe-Thr-Ser-Cys [SST-14]”, the “affinity of the five SSTR types” value (SSTR1-SSTRS; SSTR1-SSTRS) is listed as “equally high affinity” and the biological half-life ([5]; natural SST-14) is listed as 1-3 minutes.
